Measurements reported in patent US6737383B1, “Herbicidal oxadiazolidines” (priority 1999, dated 2004).

How the values were obtained:
bermuda-grass = assay: Test D bermudagrass; assay type: in vivo, Cynodon dactylon; details: Preemergence, 0 to 100 scale
Procedure, shortened: (§1)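 Greenhouse pots, sandy loam, single species per pot. Preemergence tests: soil-surface application ≤1 day after planting. Compound formulated in non-phytotoxic solvent with surfactant. Visual rating 14–21 DAT, scale 0–100.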

winter barley = assay: Test E winter barley; assay type: in vivo, Hordeum vulgare; details: Preemergence
green foxtail = assay: Test E green foxtail; assay type: in vivo, Setaria viridis; details: Preemergence
tall mallow = assay: Test D tall mallow; assay type: in vivo, Malva sylvestris; details: Preemergence, 0 to 100 scale
Procedure, shortened: as §1

common pursiane = assay: Test D common purslane; assay type: in vivo, Portulaca oleracea; details: Preemergence, 0 to 100 scale
Procedure, shortened: as §1

wild oat = assay: Test E wild oat; assay type: in vivo, Avena fatua; details: Preemergence
Italian ryegrass = assay: Test E Italian ryegrass; assay type: in vivo, Lolium multiflorum; details: Preemergence
pitted morningglory = assay: Test D pitted morningglory; assay type: in vivo, Ipomoea lacunosa; details: Preemergence, 0 to 100 scale
Procedure, shortened: as §1

soybean = assay: Test B pre/postemergence soybean; assay type: in vivo, Glycine max
Procedure, shortened: (§2)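 Response is a visual 0-to-10 score relative to untreated plants, where 0 means no effect and 10 means complete control, taken twelve to sixteen days after application. Treatments went onto soil at planting and onto foliage of 1- to 4-leaf plants, using a surfactant-containing non-phytotoxic solvent.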

winter wheat [1] = assay: Test E winter wheat; assay type: in vivo, Triticum aestivum; details: Postemergence, 0 to 100 scale
Procedure, shortened: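 For postemergence, sowings are timed so plants reach the 1- to 4-leaf stage at spraying. Test compound is applied in a surfactant-containing solvent mixture that is non-phytotoxic. Response is judged by eye against untreated controls after approximately 21 to 28 days.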

cocklebur = assay: Test B pre/postemergence cocklebur; assay type: in vivo, Xanthium strumarium
Procedure, shortened: as §2

velvetleaf = assay: Test B pre/postemergence velvetleaf; assay type: in vivo, Abutilon theophrasti
Procedure, shortened: as §2

winter wheat [2] = assay: Test E winter wheat; assay type: in vivo, Triticum aestivum; details: Preemergence
guineagrass = assay: Test D guineagrass; assay type: in vivo, Panicum maximum; details: Preemergence, 0 to 100 scale
Procedure, shortened: as §1

duck salad = assay: Test B flood test duck salad; assay type: in vivo, Heteranthera limosa
Procedure, shortened: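 Plants were grown to the 2-leaf stage before treatment with test chemical, then held in a greenhouse for twelve to sixteen days. Injury was visually rated against untreated controls on a 0–10 scale, where 0 is no effect and 10 is complete control.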

blackgrass = assay: Test E blackgrass; assay type: in vivo, Alopecurus myosuroides; details: Preemergence
[3] = Rate 16 g/ha, 0 no injury, 100 complete control
[4] = Rate 32 g/ha, 0 no injury, 100 complete control
[5] = Rate 64 g/ha, 0 no injury, 100 complete control
[6] = Rate 125 g/ha, 0 no injury, 100 complete control
[7] = Rate 31 g/ha, 0 to 100 scale, 0 no effect, 100 complete control
[8] = Rate 62 g/ha, 0 to 100 scale, 0 no effect, 100 complete control
[9] = Rate 125 g/ha, 0 to 100 scale (0 no effect, 100 complete control)
[10] = Postemergence, Rate 125 g/ha, scale of 0 to 10 where 0 is no effect and 10 is complete control
[11] = Preemergence, Rate 62 g/ha, scale 0 to 10 (0 no effect, 10 complete control)
[12] = Preemergence, Rate 125 g/ha, 0 is no effect, 10 is complete control
[13] = Preemergence, Rate 250 g/ha, scale 0 to 10, 0 is no effect, 10 is complete control
[14] = Preemergence, Rate 500 g/ha, scale 0 to 10 (0 no effect, 10 complete control)
[15] = Rate 62 g/ha, Postemergence, scale of 0 to 10 where 0 is no effect and 10 is complete control
[16] = Rate 250 g/ha, Postemergence, scale 0 to 10, 0 is no effect, 10 is complete control
[17] = Rate 500 g/ha, Postemergence, scale 0 to 10

Q: For C=CCn1c(=O)on(C(=O)N(c2ccc(F)cc2F)C(C)C)c1=O [Compound 151], which “Plant response rating, Bermudagrass” value (bermuda-grass; [3]) is on record?
A: 90

Q: And the “Plant response rating, Bermudagrass” value (bermuda-grass; [4])?
A: 90

Q: What about the “Plant response rating, Bermudagrass” value (bermuda-grass; [5]) of the same molecule?
A: 90

Q: And the “Plant response rating, Bermudagrass” value (bermuda-grass; [6])?
A: 100

Q: What about the “Plant response rating, Bermudagrass” value (bermuda-grass; Rate 250 g/ha) of the same molecule?
A: 100

Q: What about the “Plant response rating, Bermudagrass” value (bermuda-grass; Rate 500 g/ha) of the same molecule?
A: 100

Q: What about the “Plant response rating, Barley (winter)” value (winter barley; [7]) of the same molecule?
A: 10

Q: What about the “Plant response rating, Barley (winter)” value (winter barley; [8]) of the same molecule?
A: 10

Q: And the “Plant response rating, Barley (winter)” value (winter barley; [9])?
A: 20

Q: And the “Plant response rating, Green foxtail” value (green foxtail; [7])?
A: 20

Q: And the “Plant response rating, Green foxtail” value (green foxtail; [8])?
A: 30

Q: And the “Plant response rating, Green foxtail” value (green foxtail; [9])?
A: 80

Q: What about the “Plant response rating, Tall Mallow” value (tall mallow; [3]) of the same molecule?
A: 0

Q: And the “Plant response rating, Tall Mallow” value (tall mallow; [4])?
A: 0

Q: And the “Tall Mallow plant response rating” value (tall mallow; [5])?
A: 0

Q: And the “Tall Mallow plant response rating” value (tall mallow; [6])?
A: 75

Q: What about the “Plant response rating, Tall Mallow” value (tall mallow; Rate 250 g/ha) of the same molecule?
A: 85

Q: What about the “Plant response rating, Tall Mallow” value (tall mallow; Rate 500 g/ha) of the same molecule?
A: 85

Q: What about the “Plant response rating, C. purslane” value (common pursiane; [3]) of the same molecule?
A: 0

Q: What about the “Plant response rating, C. purslane” value (common pursiane; [4]) of the same molecule?
A: 0

Q: And the “Plant response rating, C. purslane” value (common pursiane; [5])?
A: 0

Q: And the “Plant response rating, C. purslane” value (common pursiane; [6])?
A: 0

Q: And the “Plant response rating, C. purslane” value (common pursiane; Rate 250 g/ha)?
A: 0

Q: What about the “Plant response rating, C. purslane” value (common pursiane; Rate 500 g/ha) of the same molecule?
A: 0

Q: And the “Plant response rating, Wild oat” value (wild oat; [7])?
A: 10

Q: What about the “Plant response rating, Wild oat” value (wild oat; [8]) of the same molecule?
A: 10

Q: And the “Plant response rating, Wild oat” value (wild oat; [9])?
A: 20

Q: What about the “Plant response rating, I. Ryegrass” value (Italian ryegrass; [7]) of the same molecule?
A: 20

Q: What about the “Plant response rating, I. Ryegrass” value (Italian ryegrass; [8]) of the same molecule?
A: 30

Q: What about the “Plant response rating, I. Ryegrass” value (Italian ryegrass; [9]) of the same molecule?
A: 50

Q: What about the “Plant response rating, P. morninglory” value (pitted morningglory; [3]) of the same molecule?
A: 0

Q: And the “Plant response rating, P. morninglory” value (pitted morningglory; [4])?
A: 0

Q: And the “Plant response rating, P. morninglory” value (pitted morningglory; [5])?
A: 0

Q: And the “Plant response rating, P. morninglory” value (pitted morningglory; [6])?
A: 0

Q: What about the “Plant response rating, P. morninglory” value (pitted morningglory; Rate 250 g/ha) of the same molecule?
A: 0

Q: And the “Plant response rating, P. morninglory” value (pitted morningglory; Rate 500 g/ha)?
A: 20

Q: And the “Soybean plant response rating” value (soybean; [10])?
A: 4

Q: What about the “Soybean plant response rating” value (soybean; [11]) of the same molecule?
A: 0

Q: And the “Soybean plant response rating (0 to 10 scale)” value (soybean; [12])?
A: 0

Q: What about the “Soybean plant response rating” value (soybean; [13]) of the same molecule?
A: 3

Q: What about the “Soybean plant response rating” value (soybean; [14]) of the same molecule?
A: 7

Q: What about the “Soybean plant response rating” value (soybean; [15]) of the same molecule?
A: 3

Q: What about the “Plant response rating, Soybean” value (soybean; [16]) of the same molecule?
A: 4

Q: And the “Soybean plant response rating” value (soybean; [17])?
A: 4

Q: What about the “Plant response rating, Wheat (winter)” value (winter wheat [1]; Rate 31 g/ha, 0 no effect, 100 complete control) of the same molecule?
A: 10

Q: What about the “Plant response rating, Wheat (winter)” value (winter wheat [1]; Rate 62 g/ha) of the same molecule?
A: 10

Q: And the “Plant response rating, Wheat (winter)” value (winter wheat [1]; Rate 125 g/ha)?
A: 70

Q: What about the “Cocklebur plant response rating” value (cocklebur; [10]) of the same molecule?
A: 0

Q: And the “Cocklebur plant response rating” value (cocklebur; [11])?
A: 0

Q: What about the “Cocklebur plant response rating” value (cocklebur; [13]) of the same molecule?
A: 0

Q: What about the “Cocklebur plant response rating” value (cocklebur; [14]) of the same molecule?
A: 0

Q: What about the “Cocklebur plant response rating” value (cocklebur; [15]) of the same molecule?
A: 0

Q: What about the “Plant response rating, Cocklebur” value (cocklebur; [16]) of the same molecule?
A: 2

Q: And the “Cocklebur plant response rating” value (cocklebur; [17])?
A: 2

Q: And the “Velvetleaf plant response rating” value (velvetleaf; [11])?
A: 6

Q: And the “Velvetleaf plant response rating (0 to 10 scale)” value (velvetleaf; [12])?
A: 8

Q: What about the “Velvetleaf plant response rating” value (velvetleaf; [13]) of the same molecule?
A: 10

Q: What about the “Velvetleaf plant response rating” value (velvetleaf; [14]) of the same molecule?
A: 10

Q: What about the “Velvetleaf plant response rating” value (velvetleaf; [15]) of the same molecule?
A: 3

Q: And the “Plant response rating, Velvetleaf” value (velvetleaf; [16])?
A: 3

Q: And the “Velvetleaf plant response rating” value (velvetleaf; [17])?
A: 5

Q: And the “Plant response rating, Wheat (winter)” value (winter wheat [2]; [7])?
A: 0

Q: And the “Plant response rating, Wheat (winter)” value (winter wheat [2]; [8])?
A: 0

Q: What about the “Plant response rating, Wheat (winter)” value (winter wheat [2]; [9]) of the same molecule?
A: 10

Q: What about the “Plant response rating, Guineagrass” value (guineagrass; [3]) of the same molecule?
A: 85

Q: And the “Plant response rating, Guineagrass” value (guineagrass; [4])?
A: 90

Q: And the “Plant response rating, Guineagrass” value (guineagrass; [5])?
A: 100

Q: And the “Plant response rating, Guineagrass” value (guineagrass; [6])?
A: 100

Q: And the “Plant response rating, Guineagrass” value (guineagrass; Rate 250 g/ha)?
A: 100

Q: And the “Plant response rating, Guineagrass” value (guineagrass; Rate 500 g/ha)?
A: 100

Q: What about the “Ducksalad plant response rating” value (duck salad; Postemergence (flood test species), Rate 125 g/ha, scale of 0 to 10 where 0 is no effect and 10 is complete control) of the same molecule?
A: 0

Q: And the “Ducksalad plant response rating” value (duck salad; Rate 62 g/ha, Postemergence section, flood test species, scale of 0 to 10 where 0 is no effect and 10 is complete control)?
A: 0

Q: What about the “Plant response rating, Ducksalad” value (duck salad; Rate 250 g/ha, Postemergence (flood test), scale 0 to 10, 0 is no effect, 10 is complete control) of the same molecule?
A: 0

Q: And the “Ducksalad plant response rating” value (duck salad; Rate 500 g/ha, listed under Postemergence (flood test species), scale 0 to 10)?
A: 2

Q: What about the “Plant response rating, Blackgrass” value (blackgrass; [7]) of the same molecule?
A: 30

Q: And the “Plant response rating, Blackgrass” value (blackgrass; [8])?
A: 45

Q: And the “Plant response rating, Blackgrass” value (blackgrass; [9])?
A: 75
